Where two headings read alike, the source gives them in different places.
Legend:
TpFADS6 [1] = molecular target: T1, TpFADS6 (Thalassiosira pseudonana, UniProt Q4G2T1); parameters: gene desI; settings: single substrate fed to Saccharomyces cerevisiae INVSc1 expressing the desaturase; delta-6 desaturation; free acid fed
TpFADS6 [2] = molecular target: T1, TpFADS6; test: fatty acid composition of substrate-fed yeast transformants by GC (conversion to GLA); assay type: cell-based; parameters: gene desI; full-length, synthetic codon-optimised gene, 1455-bp fragment; expressed from pYES2/NT C (vector-encoded tag) in Saccharomyces cerevisiae INVSc1; settings: single substrate fed to Saccharomyces cerevisiae INVSc1 expressing the desaturase; delta-6 desaturation; free acid fed

T1 sequence (Q4G2T1 entry or part of it): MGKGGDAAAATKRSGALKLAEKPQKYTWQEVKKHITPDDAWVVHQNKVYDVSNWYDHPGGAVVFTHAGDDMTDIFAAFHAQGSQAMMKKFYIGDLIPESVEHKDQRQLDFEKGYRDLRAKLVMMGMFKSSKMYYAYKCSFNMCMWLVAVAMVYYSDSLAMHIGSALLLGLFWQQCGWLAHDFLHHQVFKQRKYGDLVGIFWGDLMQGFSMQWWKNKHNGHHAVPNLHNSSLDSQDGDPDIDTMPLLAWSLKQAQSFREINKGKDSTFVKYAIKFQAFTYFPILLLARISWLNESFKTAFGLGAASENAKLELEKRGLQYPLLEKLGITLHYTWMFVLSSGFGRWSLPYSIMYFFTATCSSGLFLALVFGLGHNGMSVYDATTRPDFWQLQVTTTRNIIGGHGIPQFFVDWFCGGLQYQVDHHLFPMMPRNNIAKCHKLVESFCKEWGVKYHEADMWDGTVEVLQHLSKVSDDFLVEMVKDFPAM

| Structure (SMILES) | fatty acid composition of substrate-fed yeast transformants by GC (conversion to) (TpFADS6 [1]) | fatty acid composition of substrate-fed yeast transformants by GC (conversion to) (TpFADS6 [2]) |
| --- | --- | --- |
| CC/C=C\C/C=C\C/C=C\CCCCCCCC(=O)O [ALA, α-linolenic acid] | both substrates were catalyzed by TpFADS6 |  |
| CCCCC/C=C\C/C=C\CCCCCCCC(=O)O [LA, linoleic acid] |  | both substrates were catalyzed by TpFADS6 |

Source: publication PMC5766975, “Production of eicosapentaenoic acid by application of a delta-6 desaturase with the highest ALA catalytic activity in algae” (Microbial Cell Factories, 2018)
